# In publication PMC3465710 (Biochemistry, 2011):
# Several values for one entry are separate records, joined by “and”; a condition that tells them apart may be missing. Identical values can stand only once. Like-named read-outs stand apart in the source and are kept apart here.
# Target: T1, GLUT1 (Homo sapiens, UniProt P11166)
# T1 sequence (P11166 1-492): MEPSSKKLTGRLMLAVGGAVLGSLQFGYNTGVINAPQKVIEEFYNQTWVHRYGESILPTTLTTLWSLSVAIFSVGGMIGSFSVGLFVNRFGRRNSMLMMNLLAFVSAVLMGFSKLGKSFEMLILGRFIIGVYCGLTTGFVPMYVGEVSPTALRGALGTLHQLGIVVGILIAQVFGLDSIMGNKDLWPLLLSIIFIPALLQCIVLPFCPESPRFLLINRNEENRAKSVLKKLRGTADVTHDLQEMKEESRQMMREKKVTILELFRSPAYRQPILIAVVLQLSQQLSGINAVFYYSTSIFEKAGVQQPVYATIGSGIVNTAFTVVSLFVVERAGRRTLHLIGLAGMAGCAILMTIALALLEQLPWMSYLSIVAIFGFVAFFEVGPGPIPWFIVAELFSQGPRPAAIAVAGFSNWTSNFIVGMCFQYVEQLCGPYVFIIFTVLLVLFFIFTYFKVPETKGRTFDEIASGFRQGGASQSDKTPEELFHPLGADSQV
# Format: binding
# Settings: for β (cooperativity parameter, second inhibitor molecule) / γ (hetero-cooperativity parameter) / Inhibition (type of modulation of CB binding) / Ki: 50 nM [3H]-CB; for β (cooperativity parameter, second inhibitor molecule) / γ (hetero-cooperativity parameter) / Ki: 4°C; for β (cooperativity parameter, second inhibitor molecule) / γ (hetero-cooperativity parameter): eqn 6; for Inhibition (type of modulation of CB binding): competing ligand 0 to 100 μM; for ΔG°: calculated as RT ln(1/KI); for ΔΔG°: change in ΔG° relative to baseline cytochalasin or forskolin; for β*γ: product; for Kd: rounded values; for Ki: eqn 6, iterative free [I]
# [1] = read-out: KL (Table 3, taken from Table 1), forskolins
# [2] = read-out: Ki (affinity of unoccupied GLUT1 for ligand)
# [3] = read-out: KL (Table 2, taken from Table 1), cytochalasins
Compound,"β (cooperativity parameter, second inhibitor molecule)",γ (hetero-cooperativity parameter),Inhibition (type of modulation of CB binding),ΔG°,ΔΔG°,β*γ,Kd [1],Ki [2],further results
"C=C[C@@]1(C)CC(=O)[C@]2(O)[C@@]3(C)[C@@H](OC(C)=O)CCC(C)(C)[C@@H]3[C@H](O)[C@H](OC(C)=O)[C@@]2(C)O1 [1AFSK, 1-acetyl-forskolin]",11923 ± 8441,0.440 ± 0.008,2,-10.80 kcal/mol,-3.85 kcal/mol,5246,3 nM,3 ± 2 nM,"β (cooperativity parameter, second inhibitor molecule) (listed as 1A-FSK): 11923; γ (hetero-cooperativity parameter) (listed as 1A-FSK): 0.44"
"C=C1[C@@H](C)[C@H]2[C@H](Cc3ccccc3)NC(=O)[C@]23OC(=O)/C=C/C(=O)CCC[C@@H](C)C/C=C/[C@H]3[C@@H]1O [CCA, Cytochalasin A]",1.11 ± 0.17,0.374 ± 0.052,2,-7.72 kcal/mol,1.17 kcal/mol,0.42,–,815 ± 96 nM,"β (cooperativity parameter, second inhibitor molecule) (listed as CA): 1.11; γ (hetero-cooperativity parameter) (listed as CA): 0.38; Kd [3]: 820 nM"
"C=C[C@@]1(C)CC(=O)[C@]2(O)[C@@]3(C)CCCC(C)(C)[C@@H]3[C@H](O)[C@H](OC(C)=O)[C@@]2(C)O1 [1DOFSK, 1-deoxy-forskolin]",22179 ± 5104,0.438 ± 0.017,2,-11.41 kcal/mol,-4.46 kcal/mol,9714,1 nM,1 ± 0.7 nM,"β (cooperativity parameter, second inhibitor molecule) (listed as 1DO-FSK): 22,179 ± 5,104; β (cooperativity parameter, second inhibitor molecule) (listed as 1DeO-FSK): 22000; γ (hetero-cooperativity parameter) (listed as 1DeO-FSK): 0.44"
"C=C1[C@@H](C)[C@H]2[C@H](Cc3ccccc3)NC(=O)[C@]23[C@H](OC(C)=O)/C=C/[C@@](C)(O)C(=O)[C@@H](C)C/C=C/[C@H]3[C@@H]1O [CCD, Cytochalasin D]",101 ± 61,0.557 ± 0.019,3,-7.23 kcal/mol,1.65 kcal/mol,51,–,–,"β (cooperativity parameter, second inhibitor molecule) (listed as CD): 101; γ (hetero-cooperativity parameter) (listed as CD): 0.56; Kd (KL (Table 2, taken from Table 1), cytochalasins): 2000 nM; Ki (Ki (affinity of unoccupied GLUT1 for ligand)): 1970 ± 98 nM"
"C=C[C@@]1(C)CC(=O)[C@]2(O)[C@@]3(C)[C@@H](O)CCC(C)(C)[C@@H]3[C@H](O)[C@H](O)[C@@]2(C)O1 [7DeAFSK, 7-deacetyl-forskolin]",∞,0.450 ± 0.008,4,-11.02 kcal/mol,-4.07 kcal/mol,∞,2 nM,2 ± 2 nM,γ (hetero-cooperativity parameter) (listed as 7DeA-FSK): 0.45 ± 0.01 and 0.45
"C=C[C@@]1(C)CC(=O)[C@]2(O)[C@@]3(C)[C@@H](OC(C)=O)CCC(C)(C)[C@@H]3[C@H](OC(C)=O)[C@H](OC(C)=O)[C@@]2(C)O1 [1,6DiAFSK, 1,60diacetyl-forskolin]",1480 ± 268,0.489 ± 0.017,2,–,0.67 kcal/mol,724,11 nM,–,"β (cooperativity parameter, second inhibitor molecule) (listed as 1,6DiA-FSK): 1500; γ (hetero-cooperativity parameter) (listed as 1,6DiA-FSK): 0.49"
"C=C1[C@@H](C)[C@H]2[C@H](Cc3ccccc3)NC(=O)[C@]23[C@H](O)/C=C/[C@](C)(O)C[C@@H](C)C/C=C/[C@H]3[C@@H]1O [CCJ, Cytochalasin J]",6399 ± 347,0.635 ± 0.013,3,-10.04 kcal/mol,-1.16 kcal/mol,4063,–,12 ± 1 nM,–
"CC[C@@]1(C)CC(=O)[C@@]2(O)[C@]3(C)[C@H](O)CCC(C)(C)[C@H]3[C@@H](O)[C@@H](OC(C)=O)[C@]2(C)O1 [14.15DiHFSK, 14,15-dihydro-forskolin]",242.7 ± 140,0.571 ± 0.015,1,-9.55 kcal/mol,-2.60 kcal/mol,139,30 nM,29.1 ± 17 nM,"β (cooperativity parameter, second inhibitor molecule) (listed as 14,15DiH-FSK): 243; γ (hetero-cooperativity parameter) (listed as 14,15DiH-FSK): 0.6"
"C=C[C@@]1(C)CC(=O)[C@]2(O)[C@@]3(C)[C@@H](O)CCC(C)(C)[C@@H]3[C@H](OC(C)=O)[C@H](O)[C@@]2(C)O1 [6A7DeAFSK, 6-acetyl, 7-deacetyl-forskolin]",–,–,5,–,–,–,–,–,–
"C=C[C@@]1(C)CC(=O)[C@H]2[C@](C)(O1)[C@@H](OC(C)=O)[C@@H](O)[C@H]1C(C)(C)CC[C@H](O)[C@@]12C [9DOFSK, 9-deoxy-forskolin]",120.3 ± 12.3,0.464 ± 0.016,2,-8.07 kcal/mol,-1.12 kcal/mol,56,430 nM,430 ± 75 nM,"β (cooperativity parameter, second inhibitor molecule) (listed as 9DeO-FSK): 120; γ (hetero-cooperativity parameter) (listed as 9DeO-FSK): 0.46"
"C=C[C@@]1(C)CC(=O)[C@]2(O)[C@@]3(C)[C@@H](O)CCC(C)(C)[C@@H]3[C@H](O)[C@H](OC(=O)CF)[C@@]2(C)O1 [7FAFSK, 7-fluoroacetyl-forskolin]",45.3 ± 5.0,0.475 ± 0.010,2,-7.86 kcal/mol,-0.91 kcal/mol,22,630 nM,629 ± 0.644 nM,"β (cooperativity parameter, second inhibitor molecule) (listed as 7FA-FSK): 45; γ (hetero-cooperativity parameter) (listed as 7FA-FSK): 0.48"
"C=C1[C@@H](C)[C@H]2[C@H](Cc3ccccc3)NC(=O)[C@]23[C@H](OC(C)=O)/C=C/[C@](C)(O)C[C@@H](C)C/C=C/[C@H]3[C@@H]1O [CCH, Cytochalasin H]",249 ± 45,0.449 ± 0.019,2,-8.88 kcal/mol,0.00 kcal/mol,110,–,98 ± 3 nM,"β (cooperativity parameter, second inhibitor molecule) (listed as CH): 249; γ (hetero-cooperativity parameter) (listed as CH): 0.45; Kd [3]: 100 nM"
"CC(=O)O[C@@H]1/C=C\[C@@](C)(O)C(=O)[C@@H](C)C/C=C\[C@H]2[C@H](O)C(C)=C(C)[C@H]3C(Cc4ccccc4)NC(=O)[C@]132 (stereo partly shown) [CCC, Cytochalasin C]",∞,0.433 ± 0.003,4,-7.35 kcal/mol,1.53 kcal/mol,∞,–,1590 ± 431 nM,γ (hetero-cooperativity parameter) (listed as CC): 0.43; Kd [3]: 1600 nM
